The results in this text go back to PMC12251151, “Understanding Anti-Obesity Potential of Four Porphyrin Compounds by Investigating Pancreatic Lipase Inhibition” (Molecules, 2025).

Broadly, the Km is the substrate concentration at which the rate is half of its maximum. Broadly, the Ki is the equilibrium dissociation constant of an inhibitor or competing ligand from its target. A lower Ki goes with a stronger hold on the target. By IC50 is commonly meant the concentration that gives 50% inhibition.

Series [1] deals with T1, pancreatic lipase (PL) (Sus scrofa, UniProt P00591).
T1 construct: lipase (porcine pancreas); purchased Shanghai Yuanye Co., Ltd., Shanghai, China; host or cells: porcine pancreas
T1 sequence (P00591 1-450): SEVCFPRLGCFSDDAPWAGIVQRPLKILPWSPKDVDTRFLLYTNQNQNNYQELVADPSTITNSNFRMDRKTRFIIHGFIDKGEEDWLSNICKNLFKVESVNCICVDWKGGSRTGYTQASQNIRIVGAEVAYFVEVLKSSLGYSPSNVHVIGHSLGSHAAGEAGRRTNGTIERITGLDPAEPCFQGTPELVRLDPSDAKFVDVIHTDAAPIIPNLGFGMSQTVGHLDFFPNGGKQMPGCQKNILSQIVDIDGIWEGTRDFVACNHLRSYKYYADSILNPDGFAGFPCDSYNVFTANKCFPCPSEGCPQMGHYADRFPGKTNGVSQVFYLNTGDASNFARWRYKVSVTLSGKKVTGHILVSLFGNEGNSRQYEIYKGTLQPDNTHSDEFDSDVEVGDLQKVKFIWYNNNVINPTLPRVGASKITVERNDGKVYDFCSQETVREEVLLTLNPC
Briefly: FT-IR spectroscopy secondary structure analysis of PL-porphyrin complex. The conditions noted are these: PL:porphyrin molar ratio 1:2; for β-Antiparallel of PL in complex: PL alone 7.78 ± 0.02; for Random Coil of PL in complex: PL alone 16.30 ± 0.04; for β-Turn of PL in complex: PL alone 23.12 ± 0.03; for α-Helix of PL in complex: PL alone 25.48 ± 0.06; for β-Sheet of PL in complex: PL alone 27.31 ± 0.06. The arrangement: species or system porcine. The text has this: The effects of four porphyrin compounds on the secondary structure of PL were further studied by FT-IR spectroscopy. The amide I band (1700–1600 cm^−1, mainly C=O stretching) and the amide II band (1600–1500 cm^−1, mainly C-N stretching) are important spectral bands for studying the secondary structure of proteins. Because the regions of amide I band located at 1649–1660, 1615–1637, 1661–1680, 1638–1648, and 1681–1692 cm^−1 after curve fitting represent α-helix, β-sheet, β-turn, random coil and β-antiparallel, respectively, and the signal intensity is high, it is more widely evaluated than the amide II band.
The pancreatic lipase-porphyrin compound solution with a molar ratio of 1:2 was placed in a freeze-centrifugal concentrator Auto R1-plus (Beijing Jiaimu, Beijing, China). The dried solid samples were obtained and mixed with dried KBr, ground, and pressed into tablets, and then detected by Nicolet IS-50 (ThermoFisher, Waltham, MA, USA) instrument. The scanning range was 400–4000 cm^−1 and the resolution was 4 cm^−1. Peakfit V4.12 software was used to fit the amide I region (1600–1700 cm^−1) of pancreatic lipase.

For series [2], the target named is T1, pancreatic lipase (PL). Description: Mode of pancreatic lipase inhibition (reversibility, Lineweaver-Burk kinetics). The following applies: for Reversibility of PL inhibition: enzyme concentration vs reaction rate plots; for Ki: uncompetitive model, intercept replot. The class given is biochemical, porcine. How it is done: In the formula, v , Vmax, Km, and Ki represent reaction rate, maximum reaction rate, Michaelis constant, and free enzyme inhibition constant, respectively. [S] denotes the substrate concentration. [I] denotes the inhibitor concentration.
By analyzing the relationship between enzyme concentration and reaction rate, a fitting straight line was drawn to determine whether it was reversible.
The concentration of PL was fixed at 5 mg/mL, and the concentration of the substrate 4-nitrophenyl laurate was changed (0.40, 0.80, 1.20, 1.60 mg/mL). By analyzing the relationship between the concentration of different substrates and the reaction rate of the enzyme, the Lineweaver–Burk double reciprocal curve was plotted to determine the inhibition type and calculate the inhibition constant.

Series [3] has as its target T1, pancreatic lipase (PL). Briefly: Pancreatic lipase inhibition assay (4-nitrophenyl laurate substrate, absorbance 420 nm). Format: biochemical, porcine. The conditions noted are these: 37 °C, 2 h, pH 8.2 Tris-HCl. How it is done:
A total of 250 mg pancreatic lipase was dissolved in 50 mL ultrapure water. After centrifugation at 5000 r/min for 10 min, the supernatant was taken. Then, 80 mg of 4-nitrophenyl laurate was dissolved in 100 mL of 5 mmol/L sodium acetate solution (pH 5.0, containing 1% triton x-100), and dissolved in a boiling water bath. After cooling to room temperature, it was set aside. […] The blank sample solutions were chromatographic methanol solutions containing 2%, 5%, and 10% DMSO.
The activity of PL was determined by referring to the method and making appropriate modifications. A total of 200 μL of different concentrations of four porphyrin compounds, 500 μL of 4-nitrophenyl laurate (0.80 mg/mL), 400 μL of Tris-HCl buffer (pH 8.2, 0.1 mol/L), and 300 μL of pancreatic lipase (5 mg/mL) were reacted in an incubator at 37 °C for 2 h. The reaction solution was centrifuged at 12,000 rpm for 5 min, and 200 μL of the supernatant was added to a 96-well plate.

In series [4] the target is T1, pancreatic lipase (PL). Briefly: In vitro stability (temperature and acid-base pre-treatment, then PL inhibition). The class given is physicochemical, porcine. The following applies: 20 min treatment with buffers pH 2.0-10.0. How it is done: Temperature stability study. Sample pre-treatment: 1000 μL samples were bathed in water at different temperatures (30, 40, 50, 60, 70, 80, 90, 100 °C) for 20 min, and cooled rapidly.
Acid-base stability study. Sample pre-treatment: 1000 μL samples were treated with buffers of different pH (2.0, 3.0, 4.0, 5.0, 6.0, 7.0, 8.0, 9.0, and 10.0) for 20 min, and then the pH was adjusted back to 6.9–7.3.
PL inhibition experiments were the same as Section 3.2.1. A total of 200 μL pre-treated four porphyrin compounds, 500 μL of 4-nitrophenyl laurate (0.80 mg/mL), 400 μL of Tris-HCl buffer (pH 8.2, 0.1 mol/L), and 300 μL of pancreatic lipase (5 mg/mL) were reacted in an incubator at 37 °C for 2 h. The reaction solution was centrifuged at 12,000 rpm for 5 min, and 200 μL of the supernatant was added to a 96-well plate. The absorbance at 420 nm was measured. The temperature stability range was determined by comparing the inhibition rate of the samples treated at different temperatures. The range of acid-base stability was determined by comparing the changes in inhibition rate.

Take `O=C([O-])c1ccc(C2=C3C=CC(=N3)C(c3ccc(C(=O)[O-])cc3)=C3C=CC(=N3)C(=c3ccc(=C([O-])[O-])cc3)c3ccc([n-]3)C(c3ccc(C(=O)[O-])cc3)=C3C=CC2=N3)cc1.[67Cu+2].[H+].[H+].[H+].[H+]` [Cu-TCPP, Cu (II) meso-Tetra (4-carboxyphenyl) porphine]: on pancreatic lipase (PL) [1], the “β-Antiparallel of PL in complex” value was determined as 0.87 ± 0.01%, the “Random Coil of PL in complex” value came out at 23.40 ± 0.06%, the “β-Turn of PL in complex” value is 13.51 ± 0.03% and the “α-Helix of PL in complex” value is listed as 15.78 ± 0.05%. In addition, on pancreatic lipase (PL) [1], the “β-Sheet of PL in complex” value is listed as 46.44 ± 0.13%. Besides, at pancreatic lipase (PL) [2], the “Reversibility of PL inhibition” value is “reversible” and the Ki is 196.15 ± 0.131 µM. Besides, on pancreatic lipase (PL) [2] (inhibitor C 29.33 μM), the Km is 0.192 ± 0.0049 µM and the Vmax is recorded as 0.0052 ± 0.0013 ΔOD/min. For the same molecule, at pancreatic lipase (PL) [2] (inhibitor C 58.66 μM), the Michaelis constant (Km) stood at 0.164 ± 0.0037 µM and the Vmax is given as 0.0044 ± 0.0009 ΔOD/min. For the same molecule, on pancreatic lipase (PL) [2] (inhibitor C 117.33 μM), the Km is 0.133 ± 0.0022 µM and the Vmax is recorded as 0.0036 ± 0.0006 ΔOD/min. At pancreatic lipase (PL) [2] (inhibitor C 175.99 μM), the Michaelis constant (Km) stood at 0.112 ± 0.0046 µM and the Vmax was 0.0030 ± 0.0012 ΔOD/min. At pancreatic lipase (PL) [2] (inhibitor C 234.66 μM), the Km came out at 0.0988 ± 0.0017 µM and the Vmax was 0.0026 ± 0.0005 ΔOD/min. Further, inhibition at pancreatic lipase (PL) [3] was half-maximal at 249 µM (IC50). Further, on pancreatic lipase (PL) [4], the “pH range in which PL inhibitory activity changed little (acid-base stability)” value is recorded as 2.0~10.0 pH.

In the case of `Nc1ccc(-c2c3nc(c(-c4ccc(N)cc4)c4ccc([nH]4)c(-c4ccc(N)cc4)c4nc(c(-c5ccc(N)cc5)c5ccc2[nH]5)C=C4)C=C3)cc1` [TAPP, 5,10,15,20-Tetrakis (4-aminophenyl) porphyrin], on pancreatic lipase (PL) [1], the “β-Antiparallel of PL in complex” value is 8.26 ± 0.02%, the “Random Coil of PL in complex” value stood at 24.25 ± 0.07%, the “β-Turn of PL in complex” value is reported as 18.09 ± 0.04% and the “α-Helix of PL in complex” value is listed as 12.81 ± 0.03%. In addition, at pancreatic lipase (PL) [1], the “β-Sheet of PL in complex” value is listed as 36.59 ± 0.07%. On pancreatic lipase (PL) [2], the “Reversibility of PL inhibition” value is on record as “reversible” and the affinity corresponds to a Ki of 149.9 ± 0.195 µM. Moreover, the Vmax at pancreatic lipase (PL) [2] (inhibitor C 118.55 μM) was 0.0023 ± 0.0003 ΔOD/min. Besides, on pancreatic lipase (PL) [2] (inhibitor C 177.83 μM), the Vmax was 0.0018 ± 0.0003 ΔOD/min. The Vmax at pancreatic lipase (PL) [2] (inhibitor C 237.11 μM) is listed as 0.0016 ± 0.0006 ΔOD/min. The Vmax on pancreatic lipase (PL) [2] (inhibitor C 266.75 μM) is 0.0015 ± 0.0003 ΔOD/min. Moreover, the Vmax at pancreatic lipase (PL) [2] (inhibitor C 296.38 μM) is listed as 0.0014 ± 0.0005 ΔOD/min. Further, the IC50 at pancreatic lipase (PL) [3] is 236 µM. The “pH range in which PL inhibitory activity changed little (acid-base stability)” value on pancreatic lipase (PL) [4] is 2.0~9.0 pH.

For the molecule `O=C(O)c1ccc(-c2c3nc(c(-c4ccc(C(=O)O)cc4)c4ccc([nH]4)c(-c4ccc(C(=O)O)cc4)c4nc(c(-c5ccc(C(=O)O)cc5)c5ccc2[nH]5)C=C4)C=C3)cc1` [TCPP, meso-Tetra (4-carboxyphenyl) porphine], on pancreatic lipase (PL) [1], the “β-Antiparallel of PL in complex” value was determined as 4.82 ± 0.01%, the “Random Coil of PL in complex” value came to 24.70 ± 0.06%, the “β-Turn of PL in complex” value amounted to 10.43 ± 0.03% and the “α-Helix of PL in complex” value was found to be 22.26 ± 0.08%. Further, at pancreatic lipase (PL) [1], the “β-Sheet of PL in complex” value worked out at 37.79 ± 0.12%. Moreover, at pancreatic lipase (PL) [2], the “Reversibility of PL inhibition” value is “reversible” and the Ki was 53.49 ± 0.141 µM. Moreover, at pancreatic lipase (PL) [2] (inhibitor C 12.65 μM), the Vmax is listed as 0.0042 ± 0.0011 ΔOD/min. At pancreatic lipase (PL) [2] (inhibitor C 31.61 μM), the Vmax is given as 0.0037 ± 0.0008 ΔOD/min. In addition, at pancreatic lipase (PL) [2] (inhibitor C 63.23 μM), the Vmax is given as 0.0027 ± 0.0012 ΔOD/min. Moreover, on pancreatic lipase (PL) [2] (inhibitor C 126.45 μM), the Vmax is 0.0015 ± 0.0004 ΔOD/min. The Vmax on pancreatic lipase (PL) [2] (inhibitor C 189.68 μM) is on record as 0.0012 ± 0.0003 ΔOD/min. At pancreatic lipase (PL) [3], the midpoint of inhibition, the IC50, lay at 100 µM. Moreover, the “pH range in which PL inhibitory activity changed little (acid-base stability)” value at pancreatic lipase (PL) [4] is on record as 2.0~10.0 pH.

Consider `Oc1ccc(-c2c3nc(c(-c4ccc(O)cc4)c4ccc([nH]4)c(-c4ccc(O)cc4)c4nc(c(-c5ccc(O)cc5)c5ccc2[nH]5)C=C4)C=C3)cc1` [THPP, 5,10,15,20-Tetrakis (4-hydroxyphenyl) porphyrin], for which, on pancreatic lipase (PL) [1], the “β-Antiparallel of PL in complex” value stood at 8.32 ± 0.01%, the “Random Coil of PL in complex” value amounted to 20.38 ± 0.02%, the “β-Turn of PL in complex” value is recorded as 19.70 ± 0.04% and the “α-Helix of PL in complex” value was determined as 13.96 ± 0.04%. In addition, at pancreatic lipase (PL) [1], the “β-Sheet of PL in complex” value was 37.64 ± 0.05%. Moreover, at pancreatic lipase (PL) [2], the “Reversibility of PL inhibition” value is “reversible” and the affinity corresponds to a Ki of 37.03 ± 0.186 µM. The Vmax on pancreatic lipase (PL) [2] (inhibitor C 36.84 μM) is listed as 0.0041 ± 0.0009 ΔOD/min. Further, the Vmax on pancreatic lipase (PL) [2] (inhibitor C 73.67 μM) was 0.0035 ± 0.0013 ΔOD/min. The Vmax on pancreatic lipase (PL) [2] (inhibitor C 147.34 μM) is on record as 0.0018 ± 0.0007 ΔOD/min. The Vmax at pancreatic lipase (PL) [2] (inhibitor C 221.01 μM) is 0.0012 ± 0.0004 ΔOD/min. Also, the Vmax at pancreatic lipase (PL) [2] (inhibitor C 294.68 μM) is reported as 0.0009 ± 0.0002 ΔOD/min. Half-maximal inhibition against pancreatic lipase (PL) [3] (IC50) was put at 97.5 µM. Further, on pancreatic lipase (PL) [4], the “pH range in which PL inhibitory activity changed little (acid-base stability)” value is 2.0~10.0 pH.
